Values joined by “and” are separate entries in the source; they are usually repeats but may differ in a detail not shown here. Identical values can stand only once. Inconclusive results and toxic doses are left out.
Test system: L1210 leukemia ip in BDF1 mice, survival T/C
Test: NCI In Vivo Anticancer Drug Screen. Data for tumor model L1210 Leukemia (intraperitoneal) in B6D2F1 (BDF1) mice
Details: endpoint: mean survival time, higher = longer survival
Outline: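 Mice bearing the transplanted tumor received compound or vehicle. Survival of the treated group was divided by that of the vehicle-treated control group to give the ratio.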

[1] = dose: 100.0 mg/kg/injection, schedule: Q04DX002 (ip), vehicle: Klucel (hydroxypropylcellulose) (HPC)
[2] = dose: 200.0 mg/kg/injection, schedule: Q04DX002 (ip), vehicle: Klucel (hydroxypropylcellulose) (HPC)
[3] = dose: 100.0 mg/kg/injection, schedule: Q04DX003 (ip), vehicle: saline with Tween-80
[4] = dose: 200.0 mg/kg/injection, schedule: Q04DX003 (ip), vehicle: saline with Tween-80
[5] = dose: 400.0 mg/kg/injection, schedule: Q04DX003 (ip), vehicle: saline with Tween-80

**Q.** For `C[n+]1cccc(NC(=O)c2ccc(NC(=O)c3ccc(C(=O)Nc4ccc(NC(=N)N)cc4)cc3)cc2)c1`, which T/C (dose: 0.3 mg/kg/injection, schedule: Q01DX009 (ip), vehicle: saline) is on record?
**A.** 118 % of control

**Q.** And the T/C (dose: 0.6 mg/kg/injection, schedule: Q01DX009 (ip), vehicle: saline)?
**A.** 123 % of control

**Q.** What about the T/C (dose: 1.3 mg/kg/injection, schedule: Q01DX009 (ip), vehicle: saline) of the same molecule?
**A.** 155 % of control

**Q.** What about the T/C (dose: 2.0 mg/kg/injection, schedule: Q01DX009 (ip), vehicle: saline) of the same molecule?
**A.** 221 % of control

**Q.** And the T/C (dose: 3.0 mg/kg/injection, schedule: Q01DX009 (ip), vehicle: saline)?
**A.** 294 % of control

**Q.** And the T/C (dose: 5.0 mg/kg/injection, schedule: Q01DX001 (ip), vehicle: saline)?
**A.** 119 % of control and 124 % of control

**Q.** And the T/C (dose: 5.0 mg/kg/injection, schedule: Q01DX009 (ip), vehicle: saline)?
**A.** 193 % of control

**Q.** And the T/C (dose: 15.0 mg/kg/injection, schedule: Q01DX009 (ip), vehicle: saline)?
**A.** 123 % of control

**Q.** And the T/C (dose: 20.0 mg/kg/injection, schedule: Q01DX001 (ip), vehicle: saline)?
**A.** 178 % of control

**Q.** And the T/C (dose: 40.0 mg/kg/injection, schedule: Q01DX001 (ip), vehicle: saline)?
**A.** 201 % of control and 249 % of control

**Q.** For `COc1ccc(NC(=O)Nc2onc(C)c2C)c(Cl)c1`, which T/C (dose: 100.0 mg/kg/injection, schedule: Q01DX001 (ip), vehicle: Klucel (hydroxypropylcellulose) (HPC)) is on record?
**A.** 95 % of control

**Q.** And the T/C (dose: 100.0 mg/kg/injection, schedule: Q01DX009 (ip), vehicle: Klucel (hydroxypropylcellulose) (HPC))?
**A.** 94 % of control and 100 % of control

**Q.** What about the T/C [1] of the same molecule?
**A.** 101 % of control

**Q.** And the T/C (dose: 100.0 mg/kg/injection, schedule: Q04DX003 (ip), vehicle: Klucel (hydroxypropylcellulose) (HPC))?
**A.** 87 % of control

**Q.** What about the T/C (dose: 200.0 mg/kg/injection, schedule: Q01DX001 (ip), vehicle: Klucel (hydroxypropylcellulose) (HPC)) of the same molecule?
**A.** 97 % of control

**Q.** And the T/C (dose: 200.0 mg/kg/injection, schedule: Q01DX009 (ip), vehicle: Klucel (hydroxypropylcellulose) (HPC))?
**A.** 95 % of control and 88 % of control

**Q.** And the T/C [2]?
**A.** 95 % of control and 101 % of control

**Q.** And the T/C (dose: 200.0 mg/kg/injection, schedule: Q04DX003 (ip), vehicle: Klucel (hydroxypropylcellulose) (HPC))?
**A.** 97 % of control

**Q.** And the T/C (dose: 400.0 mg/kg/injection, schedule: Q01DX001 (ip), vehicle: Klucel (hydroxypropylcellulose) (HPC))?
**A.** 104 % of control

**Q.** And the T/C (dose: 400.0 mg/kg/injection, schedule: Q01DX009 (ip), vehicle: Klucel (hydroxypropylcellulose) (HPC))?
**A.** 93 % of control and 95 % of control

**Q.** What about the T/C (dose: 400.0 mg/kg/injection, schedule: Q04DX002 (ip), vehicle: Klucel (hydroxypropylcellulose) (HPC)) of the same molecule?
**A.** 96 % of control

**Q.** And the T/C (dose: 400.0 mg/kg/injection, schedule: Q04DX003 (ip), vehicle: Klucel (hydroxypropylcellulose) (HPC))?
**A.** 88 % of control

**Q.** And the T/C (dose: 4000.0 mg/kg/injection, schedule: Q04DX002 (ip), vehicle: Klucel (hydroxypropylcellulose) (HPC))?
**A.** 90 % of control

**Q.** What does the source list for `CN(C)c1ccc(C(=O)c2ccc(N(C)C)cc2)cc1`?
**A.** T/C [3]: 93 % of control; T/C [4]: 88 % of control; T/C [5]: 97 % of control

**Q.** Which T/C [3] does the source give for `c1ccc(CNCCNCCNCc2ccccc2)cc1` here?
**A.** 101 % of control

**Q.** And the T/C [4]?
**A.** 98 % of control

**Q.** What about the T/C [5] of the same molecule?
**A.** 94 % of control

**Q.** Which results are given for `C/C(=C\CN1C(=O)CCCC1=O)CCC(=O)O`?
**A.** T/C (dose: 100.0 mg/kg/injection, schedule: Q01DX009 (ip), vehicle: other): 90 % of control; T/C (dose: 100.0 mg/kg/injection, schedule: Q04DX003 (ip), vehicle: other): 102 % of control; T/C (dose: 200.0 mg/kg/injection, schedule: Q01DX009 (ip), vehicle: other): 98 % of control; T/C (dose: 200.0 mg/kg/injection, schedule: Q04DX003 (ip), vehicle: other): 91 % of control; T/C (dose: 400.0 mg/kg/injection, schedule: Q01DX009 (ip), vehicle: other): 93 % of control; T/C (dose: 400.0 mg/kg/injection, schedule: Q04DX003 (ip), vehicle: other): 93 % of control

**Q.** For `CC(=O)N(N=O)c1c(C)cccc1C`, which T/C (dose: 50.0 mg/kg/injection, schedule: Q01DX001 (ip), vehicle: saline) is on record?
**A.** 102 % of control

**Q.** What about the T/C (dose: 100.0 mg/kg/injection, schedule: Q01DX001 (ip), vehicle: saline) of the same molecule?
**A.** 105 % of control

**Q.** `CN(C(N)=O)c1c(O)nc(N)[nH]c1=O` was tested. Which T/C (dose: 25.0 mg/kg/injection, schedule: Q01DX009 (ip), vehicle: water) did it give?
**A.** 98 % of control

**Q.** What about the T/C (dose: 50.0 mg/kg/injection, schedule: Q01DX009 (ip), vehicle: water) of the same molecule?
**A.** 98 % of control

**Q.** And the T/C (dose: 50.0 mg/kg/injection, schedule: Q04DX003 (ip), vehicle: water)?
**A.** 108 % of control

**Q.** What about the T/C (dose: 100.0 mg/kg/injection, schedule: Q01DX009 (ip), vehicle: water) of the same molecule?
**A.** 102 % of control

**Q.** And the T/C (dose: 100.0 mg/kg/injection, schedule: Q04DX003 (ip), vehicle: water)?
**A.** 97 % of control

**Q.** And the T/C (dose: 150.0 mg/kg/injection, schedule: Q01DX009 (ip), vehicle: water)?
**A.** 105 % of control

**Q.** And the T/C (dose: 200.0 mg/kg/injection, schedule: Q04DX003 (ip), vehicle: water)?
**A.** 90 % of control

**Q.** How did the T/C (dose: 50.0 mg/kg/injection, schedule: Q04DX002 (ip), vehicle: Klucel (hydroxypropylcellulose) (HPC)) turn out when `OCC(O)C(O)CO` (configuration not stated) (tested in a mixture with another compound) was run?
**A.** 104 % of control

**Q.** And the T/C [1]?
**A.** 95 % of control

**Q.** And the T/C [2]?
**A.** 98 % of control
